Data published in patent US20080146457A1, “METHOD FOR THE DETERMINATION OF CELL ACTIVATION” (priority 2003, published 2008).

How the values were obtained:
Assay type in all cases: cell-based
Erk1/2 = assay: Phosphorylation status of Erk1/2 in PMA-treated Jurkat cells on double antibody array; conditions: PMA 0.1 to 1000 ng/ml, 10 minutes
p38 = assay: Level of phosphorylation of p38 in anisomycin-treated Jurkat cells on multiplex arrays
Protocol: (§1) Hybridization chambers were placed onto diaglass functionalized slides (EAT, Namur, Belgium) spotted with antibodies specific of the protein to be detected, in this case anti-Akt antibodies. The spotting was performed with a split pin or a pin and ring or a plain pin. Each spot contained between 0.5 and 10 nl depending on the type of pin used and its diameter.
(§2) The slides were washed 4×1 min in Washing Buffer (EAT, Namur, Belgium). The slides were then incubated for 1 h with 500 μl of a specific rabbit detection antibody against phospho-Akt diluted 500× in Blocking Buffer (EAT, Namur, Belgium). The slides were washed 4×1 min in Washing Buffer. The slides were then incubated for 45 min at room temperature with a conjugated antibody (anti-rabbit Cy3) diluted 1000× in Blocking Buffer. The slides were washed 4×1 min in Washing Buffer and then rinsed twice in water. The slides were scanned in a laser confocal scanner “ScanArray” (Packard, USA) at a resolution of 10 μm.
(§3) The assay was performed as described in Example 1, but two identical arrays were present on each slide. The capture antibodies spotted on the left and right arrays were the same, but the detection antibodies were either specific to the phospho-Akt (right arrays) or to the total Akt (left arrays). Four different mixes were prepared as follows: (1) 40 ng of purified Akt and 40 ng of purified phospho Akt; (2) 40 ng of purified Akt and 20 ng of purified phospho Akt; (3) 40 ng of purified Akt and 10 ng of purified phospho Akt; (4) 40 ng of purified Akt and 5 ng of purified phospho Akt. In this experiment, four slides were used. […] The intensity of the spots on each array was then quantified and the results clearly show decreasing signal intensities correlating with decreasing concentrations of phospho-Akt on the right arrays. The calculated ratios of phospho vs. total Akt directly relates to the known concentration used in the four different mixes.
(§4) Each slide contained 2 identical arrays. The two arrays were incubated with the same samples possibly containing the proteins to be detected. The left array was then incubated with a mixture of 7 detection antibodies directed against the 7 proteins to be detected. The right array was incubated with a mixture of 7 detection antibodies directed against the phospho-specific form of the 7 proteins to be detected. […] The samples consisted of each of the 7 proteins to be detected, in their non-phosphorylated or phosphorylated form, or combinations thereof.
(§5) The experiment was performed on slides containing a double array as presented in Example 4. […] The protein chips allowed to simultaneously quantify the level of phosphorylation of p38 and JNK1/2 due to the effect of anisomycin on cells.

JNK1/2 = assay: Level of phosphorylation of JNK1/2 in anisomycin-treated Jurkat cells on multiplex arrays
Protocol: as §1, §2, §3, §4, §5

[1] = 8 different concentrations of anisomycin

| SMILES | amount of Erk1/2 (total protein) (Erk1/2) | levels of phosphorylation at threonine 185 and tyrosine 187 of Erk1/2 (Erk1/2) | level of phospho form of p38 (p38; [1]) | level of total p38 (p38; [1]) | ratio of Phospho vs. total forms of p38 (p38; anisomycin 1 μM) | ratio of Phospho vs. total forms of p38 (p38; anisomycin 100 μM) | level of phospho form of JNK1/2 (JNK1/2; [1]) | level of total JNK1/2 (JNK1/2; [1]) | ratio of Phospho vs. total forms of JNK1/2 (JNK1/2; anisomycin 0.01 μM) | ratio of Phospho vs. total forms of JNK1/2 (JNK1/2; anisomycin 1 μM) |
| --- | --- | --- | --- | --- | --- | --- | --- | --- | --- | --- |
| CCCCCCCCCCCCCC(=O)O[C@@H]1[C@@H](C)[C@@]2(O)[C@@H](C=C(CO)C[C@]3(O)C(=O)C(C)=C[C@@H]23)[C@@H]2C(C)(C)[C@]12OC(C)=O [PMA, phorbol 12-myristate 13-acetate] | remains constant | increase with the amount of PMA | – | – | – | – | – | – | – | – |
| COc1ccc(C[C@H]2NC[C@H](O)[C@H]2OC(C)=O)cc1 [anisomycin] | – | – | increase with the anisomycin concentration | remain constant | 0.33 | 1.0 | increase with the anisomycin concentration | remain constant | 0.33 | 0.88 |
